Measurements: paper PMC4890880 (ACS infectious diseases, 2016)
Counter-ions that a name gives are not always drawn. Like-named read-outs stand apart in the source and are kept apart here.

Assays:
[1] = tested on: Plasmodium berghei (Pb-Luc) exoerythrocytic-stage parasites; assay: microbe, parasite or virus in culture
[2] = tested on: P. falciparum 3D7 parasites; assay: Asexual erythrocytic-stage SYBR Green I proliferation assay, 1536-well; format: cell-based, Plasmodium falciparum
[3] = tested on: Pb-Luc exoerythrocytic-stage parasites in Huh7.5.1 cells; assay: Pb-Luc time of action assay (modified 384-well luciferase assay); details: Plasmodium berghei
[4] = tested on: Plasmodium berghei (Pb-Luc) exoerythrocytic-stage parasites; details: read-out: P. berghei (liver) IC50; Table S1, validation set of 50 antimalarials; Pb-Luc
[5] = tested on: Plasmodium cynomolgi exoerythrocytic-stage small (hypnozoites) and large (liver stage schizonts) parasites; assay: P. cynomolgi liver assay in primary hepatocytes; details: Plasmodium cynomolgi, Hepatocyte
[6] = read-out: P. berghei (liver) IC50, Table S1, validation set of 50 antimalarials, Pb-Luc
[7] = Plasmodium falciparum, 3D7, read-out: P. falciparum (blood) IC50, Table S1, validation set of 50 antimalarials
[8] = read-out: P. berghei (liver) IC50
[9] = Plasmodium falciparum, 3D7, read-out: P. falciparum (blood) IC50
[10] = read-out: P. falciparum (blood) IC50, Table S1, validation set of 50 antimalarials
[11] = read-out: % inhibition normalized to untreated control, Large
[12] = read-out: % inhibition normalized to untreated control, Small

Molecule: CCN(CC)Cc1cc(Nc2ccnc3cc(Cl)ccc23)ccc1O [Amodiaquine, reference compound]
- IC50 [1, 6]: 1590 nM
- IC50 [2, 7]: > 62500 nM

Molecule: CO[C@H]1O[C@@H]2O[C@@]3(C)CC[C@H]4[C@H](C)CC[C@@H]([C@H]1C)[C@@]24OO3 [Artemether, reference compound]
- IC50 [1, 6]: 3140 nM
- IC50 [2, 7]: < 0.4 nM

Molecule: C[C@@H]1CC[C@H]2[C@@H](C)C(=O)O[C@@H]3O[C@@]4(C)CC[C@@H]1[C@]32OO4 [Artemisinin, reference compound]
- IC50 [1, 6]: 1720 nM
- IC50 [2, 7]: 4.7 nM

Molecule: C[C@H]1[C@H](N2CCS(=O)(=O)CC2)O[C@@H]2O[C@@]3(C)CC[C@H]4[C@H](C)CC[C@@H]1[C@@]24OO3 [Artemisone, reference compound]
- IC50 [1, 6]: 178 nM
- IC50 [2, 7]: 0.7 nM

Molecule: C[C@H]1[C@@H](O)O[C@@H]2O[C@@]3(C)CC[C@H]4[C@H](C)CC[C@@H]1[C@@]24OO3 [Artenimol, reference compound]
- IC50 [1, 6]: 1560 nM
- IC50 [2, 7]: < 0.4 nM

Molecule: C[C@H]1[C@H](OC(=O)CCC(=O)O)O[C@@H]2O[C@@]3(C)CC[C@H]4[C@H](C)CC[C@@H]1[C@@]24OO3 [Artesunate, reference compound]
- IC50 [1, 6]: 246 nM
- IC50 [2, 7]: 0.9 nM

Molecule: CC[C@H]1OC(=O)[C@H](C)[C@@H](O[C@H]2C[C@@](C)(OC)[C@@H](O)[C@H](C)O2)[C@H](C)[C@@H](O[C@@H]2O[C@H](C)C[C@H](N(C)C)[C@H]2O)[C@](C)(O)C[C@@H](C)CN(C)[C@H](C)[C@@H](O)[C@]1(C)O [Azithromycin, reference compound]
- IC50 [1, 6]: > 12500 nM
- IC50 [2, 7]: 257 nM

Molecule: CCN(CC)CCCC(C)Nc1ccnc2cc(Cl)ccc12 (centres unmarked) [Chloroquine, reference compound]
- IC50 [1, 8]: > 12500 nM
- IC50 [2, 9]: 2.1 nM

Molecule: CC1(C)N=C(N)N=C(N)N1c1ccc(Cl)cc1 [Cycloguanil, reference compound]
- IC50 [1, 6]: 7 nM
- IC50 [2, 7]: 3.1 nM

Molecule: C[C@@H]1C[C@@H]([C@H](O)CC2CC(=O)NC(=O)C2)C(=O)[C@@H](C)C1 [Cycloheximide, reference compound]
- IC50 [1, 8]: 20.7 nM
- IC50 [2, 9]: 1.8 nM

Molecule: O=C(NCCN1CCCC1)c1cc(-c2ccc(CN3CCOCC3)cc2)nc2ccc(F)cc12 [DDD107498, reference compound]
- IC50 ([3]; Huh-7.5.1, read-out: Pb-Luc IC50, Treatment: 1): 2.2 nM
- IC50 ([3]; Huh-7.5.1, read-out: Pb-Luc IC50, Treatment: 2): 1.6 nM
- IC50 ([3]; Huh-7.5.1, read-out: Pb-Luc IC50, Treatment: 3): 0.8 nM
- IC50 ([3]; Huh-7.5.1, read-out: Pb-Luc IC50, Treatment: 4): 1.1 nM
- IC50 ([3]; Huh-7.5.1, read-out: Pb-Luc IC50, Treatment: 5): 0.9 nM
- IC50 ([3]; Huh-7.5.1, read-out: Pb-Luc IC50, Treatment: 6): 0.7 nM

Molecule: Nc1ccc(S(=O)(=O)c2ccc(N)cc2)cc1 [Dapsone, reference compound]
- IC50 [1, 6]: 2440 nM
- IC50 [2, 7]: > 62500 nM

Molecule: CC(=O)N(O)CCCCCNC(=O)CCC(=O)N(O)CCCCCNC(=O)CCC(=O)N(O)CCCCCN [Deferoxamine, reference compound]
- IC50 [1, 6]: > 12500 nM
- IC50 [2, 7]: > 10000 nM

Molecule: C[C@H]1c2cccc(O)c2C(O)=C2C(=O)[C@]3(O)C(O)=C(C(N)=O)C(=O)[C@@H](N(C)C)[C@@H]3[C@@H](O)[C@@H]21 [Doxycyclin, reference compound]
- IC50 [4]: 11600 nM
- IC50 [2, 10]: 8820 nM

Molecule: O=CN(O)CCCP(=O)(O)O [Fosmidomycin, reference compound]
- IC50 [1, 6]: > 12500 nM
- IC50 [2, 7]: > 10000 nM

Molecule: CCCCN(CCCC)CCC(O)c1cc2c(Cl)cc(Cl)cc2c2cc(C(F)(F)F)ccc12 (centres unmarked) [Halofantrine, reference compound]
- IC50 [1, 6]: 2840 nM
- IC50 [2, 7]: 1.5 nM

Molecule: CCN(CCO)CCCC(C)Nc1ccnc2cc(Cl)ccc12 (centres unmarked) [Hydroxychloroquine, reference compound]
- IC50 [1, 6]: > 12500 nM
- IC50 [2, 7]: 13.9 nM

Molecule: CCCCN(CCCC)CC(O)c1cc(Cl)cc2c1-c1ccc(Cl)cc1/C2=C/c1ccc(Cl)cc1 (centres unmarked) [Lumefantrine, reference compound]
- IC50 [1, 6]: > 12500 nM
- IC50 [2, 7]: 7.3 nM

Molecule: OC(c1cc(C(F)(F)F)nc2c(C(F)(F)F)cccc12)C1CCCCN1 (centres unmarked) [Mefloquine (+ RS), Mefloquine, reference compound]
- IC50 [1, 6]: 2330 nM
- IC50 [2, 10]: 16.6 nM

Molecule: CN(C)c1ccc2nc3ccc(=[N+](C)C)cc-3sc2c1 [Methylene Blue, reference compound]
- IC50 [1, 6]: 95.6 nM
- IC50 [2, 7]: 7980 nM

Molecule: CC(=O)N[C@@H](C(=O)O)C(C)(C)S [N-acetyl-D-penicillamine, reference compound]
- IC50 [4]: > 12500 nM
- IC50 [2, 10]: > 62500 nM

Molecule: COc1cc(N[C@H](C)CCCN)c2nccc(C)c2c1Oc1ccc(Cl)c(Cl)c1 [NPC-1161B, reference compound]
- IC50 [4]: 3550 nM
- IC50 [2, 10]: 1320 nM

Molecule: CC(C)(C)NCc1cc(Nc2ccnc3cc(Cl)ccc23)c2c(c1O)CCCC2 [Naphthoquine, reference compound]
- IC50 [4]: 391 nM
- IC50 [2, 10]: 11.4 nM

Molecule: CC(C)(N)CNC(=O)C[C@H]1CC[C@]2(CC1)OO[C@]1(O2)C2CC3CC(C2)CC1C3 [OZ277, reference compound]
- IC50 [1, 6]: 1640 nM
- IC50 [2, 7]: 2.3 nM

Molecule: c1cc([C@H]2CC[C@]3(CC2)OO[C@]2(O3)C3CC4CC(C3)CC2C4)ccc1OCCN1CCOCC1 [OZ439, reference compound]
- IC50 [1, 6]: 5240 nM
- IC50 [2, 7]: 2.8 nM

Molecule: CCc1nc(N)nc(N)c1OCCCOc1ccccc1CCC(=O)O [P218.HCl, reference compound]
- IC50 [4]: 0.916 nM
- IC50 [2, 10]: 0.4 nM

Molecule: CCN(CC)CCCC(C)Nc1cc(OC)cc2cccnc12 (centres unmarked) [Pamaquine, reference compound]
- IC50 [1, 6]: > 12500 nM
- IC50 [2, 7]: > 10000 nM

Molecule: N=C(N)c1ccc(OCCCCCOc2ccc(C(=N)N)cc2)cc1 [Pentamidine, reference compound]
- IC50 [1, 6]: 286 nM
- IC50 [2, 7]: 0.5 nM

Molecule: Clc1ccc2c(N3CCN(CCCN4CCN(c5ccnc6cc(Cl)ccc56)CC4)CC3)ccnc2c1 [Piperaquine, reference compound]
- IC50 [1, 6]: > 12500 nM
- IC50 [2, 7]: 72 nM

Molecule: COc1cc(NC(C)CCCN)c2ncccc2c1 (centres unmarked) [Primaquine, reference compound]
- IC50 [1, 8]: 705 nM
- inhibition at 0.1 µM [5, 11]: 1%
- inhibition at 1 µM [5, 11]: 3%
- inhibition at 10 µM [5, 11]: 13%
- inhibition at 0.1 µM [5, 12]: 4%
- inhibition at 1 µM [5, 12]: 19%
- inhibition at 10 µM [5, 12]: 24%
- IC50 [2, 9]: 695 nM

Molecule: [H]/N=C(\N/C(=N/[H])Nc1ccc(Cl)cc1)NC(C)C [Proguanil HCL, reference compound]
- IC50 [1, 6]: 4560 nM
- IC50 [2, 7]: 6240 nM

Molecule: COc1ccc2nc3cc(Cl)ccc3c(Nc3cc(CN4CCCC4)c(O)c(CN4CCCC4)c3)c2n1 [Pyronaridine, reference compound]
- IC50 [1, 6]: 6790 nM
- IC50 [2, 7]: 9.6 nM

Molecule: C=C[C@H]1C[N@@]2CC[C@H]1C[C@@H]2[C@@H](O)c1ccnc2ccc(OC)cc12 [Quinidine, reference compound]
- IC50 [1, 6]: > 12500 nM
- IC50 [2, 7]: 2.9 nM

Molecule: C=C[C@H]1C[N@@]2CC[C@H]1C[C@H]2[C@H](O)c1ccnc2ccc(OC)cc12 [Quinine sulfate dihydrate, reference compound]
- IC50 [1, 6]: > 12500 nM
- IC50 [2, 7]: 12.3 nM

Molecule: Cc1cc2nc3c(=O)[nH]c(=O)nc-3n(C[C@H](O)[C@H](O)[C@H](O)CO)c2cc1C [Riboflavin, reference compound]
- IC50 [1, 6]: > 12500 nM
- IC50 [2, 7]: > 62500 nM

Molecule: Nc1ccc(S(=O)(=O)Nc2ncccn2)cc1 [Sulfadiazine, reference compound]
- IC50 [1, 8]: 16 nM
- IC50 [2, 7]: > 62500 nM

Molecule: COc1ncnc(NS(=O)(=O)c2ccc(N)cc2)c1OC [Sulfadoxine, reference compound]
- IC50 [1, 6]: 74 nM
- IC50 [2, 7]: > 62500 nM

Molecule: COc1cc(C)c2c(Oc3cccc(C(F)(F)F)c3)c(OC)cc(NC(C)CCCN)c2n1 (centres unmarked) [Tafenoquine, reference compound]
- IC50 [1, 6]: 5860 nM
- IC50 [2, 7]: 2820 nM

Molecule: CN(C)[C@@H]1C(O)=C(C(N)=O)C(=O)[C@@]2(O)C(O)=C3C(=O)c4c(O)cccc4[C@@](C)(O)[C@H]3C[C@@H]12 [Tetracycline, reference compound]
- IC50 [1, 8]: > 12500 nM
- IC50 [2, 7]: > 10000 nM

Molecule: C=C(NC(=O)C(=C)NC(=O)c1csc(C2=N[C@@H]3c4csc(n4)[C@H]4NC(=O)c5csc(n5)[C@H]([C@](C)(O)[C@@H](C)O)NC(=O)[C@H]5CSC(=N5)/C(=C/C)NC(=O)[C@H]([C@@H](C)O)NC(=O)c5csc(n5)[C@]3(CC2)NC(=O)[C@H](C)NC(=O)C(=C)NC(=O)[C@H](C)NC(=O)[C@H]([C@@H](C)CC)N[C@@H]2C=Cc3c([C@H](C)O)cc(nc3[C@H]2O)C(=O)O[C@@H]4C)n1)C(N)=O [Thiostrepton, reference compound]
- IC50 [1, 8]: 3130 nM
- IC50 [2, 9]: 1910 nM

Molecule: Trans-Mirincamycin [reference compound]
- IC50 [4]: > 12500 nM
- IC50 [2, 10]: > 10000 nM
